Reference: article PMC8236452, “Pharmacokinetics and safety of rucaparib in patients with advanced solid tumors and hepatic impairment” (Cancer Chemotherapy and Pharmacology, 2021)
Where two headings read alike, the source gives them in different places.

Legend:
[1] = Urine pharmacokinetics (Ae0–24, CLR) after a single oral dose of rucaparib 600 mg in patients with advanced solid tumors; format: in vivo, human; conditions: urine, single oral rucaparib 600 mg; for CL renal: human, po, 600 mg
Excerpt: Stable deuterium-labeled analytes were used as internal standards.
PK parameters were estimated from the concentration–time profiles.

[2] = tested on: patients with advanced solid tumors; experiment: Safety and tolerability (TEAEs) after a single oral dose of rucaparib 600 mg; format: in vivo, human; conditions: for TEAE: Abdominal pain / TEAE: Cholangitis / TEAE: Hyperbilirubinemia / TEAE: Hypokalemia: Grade 3 event; for TEAE: Multiple organ dysfunction syndrome: Grade 5 event
Description: Safety and tolerability assessments comprised adverse events, clinical laboratory parameters, vital signs, 12-lead ECG, physical examination, and ECOG PS. For part 1 of this study, symptom-associated physical examination and safety laboratory tests, including clinical chemistry, hematology, coagulation, and urinalysis, were performed on day 7 after administration of the first dose of the study medication; 12-lead ECGs were performed 2 and 4 h postdose. All safety assessments were performed at the end of the treatment visit. Treatment-emergent adverse events (TEAEs) were defined as adverse events with an onset date on or after the date of first dose of study treatment until 28 days after the last dose. Causality of treatment-emergent adverse events was evaluated by investigators based on clinical and scientific data for rucaparib, including previously observed and known reactions, temporal relationship of event to rucaparib administration, patient response on […] rechallenge with the drug, medical history and ongoing concomitant conditions, natural course of the disease, potential effects of concomitant medications and interactions with the study drug, and biological plausibility of the event based on mechanism of action of rucaparib.

[3] = Child–Pugh mild hepatic impairment
[4] = Child–Pugh moderate hepatic impairment
[5] = Child–Pugh severe hepatic impairment
[6] = NCI-ODWG moderate hepatic impairment
[7] = NCI-ODWG normal hepatic function
[8] = Moderate hepatic impairment (NCI-ODWG, n = 8)
[9] = Normal hepatic function (NCI-ODWG, n = 8)

SMILES: CNCc1ccc(-c2[nH]c3cc(F)cc4c3c2CCNC4=O)cc1 [rucaparib]
- CL renal ([1]; Child–Pugh mild hepatic impairment, read-out: CLR, GM): 55.2 mL/min
- CL renal ([1]; Child–Pugh mild hepatic impairment, read-out: CLR, Mean (SD)): 56.7 mL/min
- CL renal ([1]; Child–Pugh mild hepatic impairment, read-out: CLR, Median (min–max)): 59.5 mL/min
- CL renal ([1]; Child–Pugh moderate hepatic impairment, read-out: CLR, GM): 48.8 mL/min
- CL renal ([1]; Child–Pugh moderate hepatic impairment, read-out: CLR, Mean (SD)): 52.3 mL/min
- CL renal ([1]; Child–Pugh moderate hepatic impairment, read-out: CLR, Median (min–max)): 53.7 mL/min
- CL renal ([1]; Child–Pugh severe hepatic impairment, read-out: CLR, GM): 16 mL/min
- CL renal ([1]; Child–Pugh severe hepatic impairment, read-out: CLR, Mean (SD)): 20.1 mL/min
- CL renal ([1]; Child–Pugh severe hepatic impairment, read-out: CLR, Median (min–max)): 20.1 mL/min
- CL renal ([1]; NCI-ODWG moderate hepatic impairment, read-out: CLR, GM): 36.9 mL/min
- CL renal ([1]; NCI-ODWG moderate hepatic impairment, read-out: CLR, Mean (SD)): 46.2 mL/min
- CL renal ([1]; NCI-ODWG moderate hepatic impairment, read-out: CLR, Median (min–max)): 41.1 mL/min
- CL renal ([1]; NCI-ODWG normal hepatic function, read-out: CLR, GM): 52.5 mL/min
- CL renal ([1]; NCI-ODWG normal hepatic function, read-out: CLR, Mean (SD)): 53.5 mL/min
- CL renal ([1]; NCI-ODWG normal hepatic function, read-out: CLR, Median (min–max)): 56.1 mL/min
- Ae0–24, GM [1, 3]: 17.6 mg
- Ae0–24, Mean (SD) [1, 3]: 20.7 (11.9) mg
- Ae0–24, Median (min–max) [1, 3]: 21.4 (7.69–40.6) mg
- Ae0–24, GM [1, 4]: 28.2 mg
- Ae0–24, Mean (SD) [1, 4]: 29.8 (9.93) mg
- Ae0–24, Median (min–max) [1, 4]: 33.2 (16.7–41.5) mg
- Ae0–24, GM [1, 5]: 8.49 mg
- Ae0–24, Mean (SD) [1, 5]: 8.89 (3.72) mg
- Ae0–24, Median (min–max) [1, 5]: 8.89 (6.26–11.5) mg
- Ae0–24, GM [1, 6]: 16.0 mg
- Ae0–24, Mean (SD) [1, 6]: 19.8 (13.7) mg
- Ae0–24, Median (min–max) [1, 6]: 16.7 (6.26–41.5) mg
- Ae0–24, GM [1, 7]: 22.8 mg
- Ae0–24, Mean (SD) [1, 7]: 25.4 (10.9) mg
- Ae0–24, Median (min–max) [1, 7]: 27.0 (7.69–40.6) mg
- TEAE: Anemia [2, 8]: 1 (12.5) n (%)
- TEAE: Ascites [2, 8]: 1 (12.5) n (%)
- TEAE: Body temperature increased [2, 8]: 1 (12.5) n (%)
- TEAE: Conjunctival hemorrhage [2, 8]: 1 (12.5) n (%)
- TEAE: Decreased appetite [2, 8]: 0 n (%)
- TEAE: Nausea [2, 8]: 0 n (%)
- TEAE: Pyrexia [2, 8]: 1 (12.5) n (%)
- TEAE: Renal failure [2, 8]: 1 (12.5) n (%)
- TEAE: Thrombocytopenia [2, 8]: 1 (12.5) n (%)
- TEAE: Urinary tract infection [2, 8]: 1 (12.5) n (%)
- TEAEs: Patients with any event [2, 8]: 6 (75.0) n (%)
- TEAE: Abdominal pain [2, 8]: 1 (12.5) n (%)
- TEAE: Cholangitis [2, 8]: 1 (12.5) n (%)
- TEAE: Hyperbilirubinemia [2, 8]: 1 (12.5) n (%)
- TEAE: Hypokalemia [2, 8]: 1 (12.5) n (%)
- TEAE: Multiple organ dysfunction syndrome [2, 8]: 1 (12.5) n (%)
- TEAE: Anemia [2, 9]: 0 n (%)
- TEAE: Ascites [2, 9]: 0 n (%)
- TEAE: Body temperature increased [2, 9]: 0 n (%)
- TEAE: Conjunctival hemorrhage [2, 9]: 0 n (%)
- TEAE: Decreased appetite [2, 9]: 1 (12.5) n (%)
- TEAE: Nausea [2, 9]: 1 (12.5) n (%)
- TEAE: Pyrexia [2, 9]: 0 n (%)
- TEAE: Renal failure [2, 9]: 0 n (%)
- TEAE: Thrombocytopenia [2, 9]: 0 n (%)
- TEAE: Urinary tract infection [2, 9]: 0 n (%)
- TEAEs: Patients with any event [2, 9]: 2 (25.0) n (%)
- TEAE: Abdominal pain [2, 9]: 0 n (%)
- TEAE: Cholangitis [2, 9]: 0 n (%)
- TEAE: Hyperbilirubinemia [2, 9]: 0 n (%)
- TEAE: Hypokalemia [2, 9]: 0 n (%)
- TEAE: Multiple organ dysfunction syndrome [2, 9]: 0 n (%)
- TEAE: Anemia ([2]; Overall (N = 16)): 1 (6.3) n (%)
- TEAE: Ascites ([2]; Overall (N = 16)): 1 (6.3) n (%)
- TEAE: Body temperature increased ([2]; Overall (N = 16)): 1 (6.3) n (%)
- TEAE: Conjunctival hemorrhage ([2]; Overall (N = 16)): 1 (6.3) n (%)
- TEAE: Decreased appetite ([2]; Overall (N = 16)): 1 (6.3) n (%)
- TEAE: Nausea ([2]; Overall (N = 16)): 1 (6.3) n (%)
- TEAE: Pyrexia ([2]; Overall (N = 16)): 1 (6.3) n (%)
- TEAE: Renal failure ([2]; Overall (N = 16)): 1 (6.3) n (%)
- TEAE: Thrombocytopenia ([2]; Overall (N = 16)): 1 (6.3) n (%)
- TEAE: Urinary tract infection ([2]; Overall (N = 16)): 1 (6.3) n (%)
- TEAEs: Patients with any event ([2]; Overall (N = 16)): 8 (50.0) n (%)
- TEAE: Abdominal pain ([2]; Overall (N = 16)): 1 (6.3) n (%)
- TEAE: Cholangitis ([2]; Overall (N = 16)): 1 (6.3) n (%)
- TEAE: Hyperbilirubinemia ([2]; Overall (N = 16)): 1 (6.3) n (%)
- TEAE: Hypokalemia ([2]; Overall (N = 16)): 1 (6.3) n (%)
- TEAE: Multiple organ dysfunction syndrome ([2]; Overall (N = 16)): 1 (6.3) n (%)
- Patients who withdrew from the study due to a TEAE ([2]; after completion of PK assessment in Part 1, both in the moderate hepatic impairment group): two
- Patients who experienced at least 1 TEAE ([2]; all 16 patients): 50%
- System Organ Class TEAEs: gastrointestinal disorders ([2]; all 16 patients, abdominal pain, ascites, nausea): 18.8%
- Patients with at least 1 TEAE of grade 3 or higher ([2]; all in the moderate hepatic impairment group): Four
- TEAEs considered treatment related ([2]; grade 1 anemia and grade 1 thrombocytopenia, one patient, moderate hepatic impairment group): 2 TEAEs
- Patients who experienced at least 1 TEAE ([2]; moderate hepatic impairment group): 75.0%
- Patients who experienced at least 1 TEAE ([2]; normal hepatic function group): 25.0%
- Trends in clinical laboratory parameters, vital signs, ECG, physical examinations ([2]; single oral rucaparib 600 mg): no clinically relevant treatment-related trends observed
